Laboratory results published in publication PMC5430599, “Antiplasmodial dihetarylthioethers target the coenzyme A synthesis pathway in Plasmodium falciparum erythrocytic stages” (Malaria Journal, 2017).
Where two headings read alike, the source gives them in different places.

Tests used:
[1] = system: Plasmodium falciparum parasites (3D7 strain); assay: Coenzyme A rescue assay (imaging-based growth inhibition, with or without 0.8 mM CoA); assay type: cell-based; settings: for IC50-ratio (CoA/solvent): IC50 with 0.8 mM CoA / IC50 solvent, threshold 5× significant; for IC50: Plasmodium falciparum; for IC50 shift with CoA supplementation: IC50 CoA / IC50 solvent
Protocol: Plasmodium falciparum parasites (3D7 strain) were grown in RPMI 1640 supplemented with 25 mM HEPES, 5 mg/mL Albumax II, and 0.37 mM hypoxanthine. Parasites were subjected to two rounds of sorbitol synchronization before undergoing compound treatment. Ring stage parasites were exposed to the experimental compounds alone, or in combination with 0.8 mM coenzyme A (CoA) in 384-wells imaging microplates (CellCarrier, PerkinElmer), as previously described. […] Puromycin 5 µM and untreated solvent were used as in-plate positive and negative controls, respectively. Samples were dissolved in DMSO to a final assay DMSO concentration of 0.4%. […] All sample and control wells contained the same final amounts of solvents. Plates were incubated for 72 h at 90% N2, 5% CO2, 5% O2, then parasites were stained with 2-(4-amidinophenyl)-1H-indole-6-carboxamidine (DAPI), and imaged using an Opera QEHS micro-plate confocal imaging system (PerkinElmer) with 405 nm excitation and 450/50 emission filter, using a 20× water immersion objective. Images were analysed as previously described, to obtain normalized % inhibition data, which were then used to calculate IC50 values, through a four parameter logistic curve fitting in GraphPad Prism v.6. The experiment was carried out in two independent biological replicates, each consisting of two technical replicates. Dose–response curves are illustrated in the Additional file 4.

[2] = system: human embryonic kidney (HEK-293) cells; assay: Cytotoxicity assay: human HEK-293 cell line (resazurin); assay type: cell-based; settings: for IC50: Homo sapiens, HEK293, cytotoxicity, 72 h, read-out: IC50 [µM], HEK-293
Protocol: Cytotoxicity against human embryonic kidney (HEK-293) cells was assessed as previously described. […] Cells were detached using Accutase treatment, then seeded into black clear-bottom 384-wells fluorescence microplates (Greiner), at a cell density of 44,000 cells/mL in 45 µL/well, using a Benchtop liquid dispenser (Thermo Fisher Multidrop). After seeding, the cells were brought back to the incubator and allowed to settle and reattach overnight. […] Plates were incubated at the standard condition above for 72 h. At the end of the incubation the medium in each well was replaced with 1 mM resazurin, and the plates were read using a multilabel microplate reader (PerkinElmer Envision) at 530 nm excitation and 595 nm emission wavelengths after a further 6 h incubation. Inhibition data was generated using Office Excel 2013 (Microsoft). IC50 values were calculated by fitting a four-parameter nonlinear regression model using Prism v.6.0 (Graphpad Software Inc., La Jolla, CA, USA).

[3] = system: THP-1 cells; assay: Cytotoxicity assay: human THP-1 cell line (Alamar Blue); assay type: cell-based; settings: for IC50: Homo sapiens, THP-1, cytotoxicity, 48 h
Protocol: THP-1 cells were passed into fresh THP-1 culture medium. Cells were harvested by centrifugation (250×g, 10′, 4 °C), washed three times with RPMI 1640 medium, and diluted to 8 × 10^5 cells/mL. The cells were aliquoted in triplicate (125 μL/well) into 96-well flat-bottom plates containing compounds diluted in complete medium (125 μL/well, containing 0.01% DMSO). THP-1 cells in wells containing medium plus 0.01% DMSO served as negative controls. Cells were incubated with test compounds at 37 °C and 5% CO2 for 48 h prior to the addition of 10% Alamar Blue (25 μL/well). After an additional 4 h the fluorescence was read (λex = 544 nm, λem = 590 nm) using a microplate reader (Fluoroskan Ascent FL, Thermo Fisher Scientific, Waltham, MA, USA). Results were analysed using Prism 4 (GraphPad Software Inc., La Jolla, CA, USA). Experiments were performed in triplicate and were repeated at least twice.

[4] = system: asexual erythrocytic stages of transgenic NF54-luc P. falciparum; assay: Luciferase-based viability screening for anti-malarial activity; assay type: cell-based, Plasmodium falciparum; settings: >50% inhibition of viability rated active; for inhibition at 3 µM: Plasmodium falciparum, NF54, 48 h, read-out: % inhibition, PfNF54-Luc at 3 µM, 3 µM, 48 h
Protocol: Asexual erythrocytic stages of transgenic NF54-luc P. falciparum were used for the luciferase-based viability assay. These parasites constitutively express high levels of luciferase. The parasites were cultured as described previously. Parasite culture with parasitaemia of 0.5–1% was dispensed in triplicate into white 96-well flat-bottom plates (each well contains 250 µL) (NUNC, Roskilde, […], 90% N2, 5% CO2, and 5% O2). 0.01% DMSO was included in the untreated infected RBC cultures as negative control, since the compounds stock initially was diluted in DMSO and each treatment well also contained 0.01% DMSO. Subsequently, 100 µL RPMI1640 media was removed from each well and a 100 µL volume of the Bright-Glo® substrate solution added to each well. The resultant cleavage product of the reaction, light, was measured using a FLUOROSKAN FL luminometer (Thermo), to ascertain viable parasites. Untreated cultures were used as negative controls and to calculate the inhibition rate (0% inhibition of parasite growth). Blasticidin (Sigma-Aldrich, St. Louis, MO, USA), used for selection of transfected parasites, was included as a positive control on each plate and gave >90% inhibition of parasite growth at concentration 2 µg/mL. Compounds with >50% inhibition of viability were rated as actives. Experiments were performed in triplicate and were repeated at least twice.

[5] = 3D7, 72 h, 0.8 mM CoA (rescue), 72 h, read-out: IC50 [µM], Pf3D7 + 0.8 mM CoA
[6] = 3D7, 72 h, no CoA (solvent, non-rescue), 72 h, read-out: IC50 [µM], Pf3D7 + solvent

SMILES	IC50-ratio (CoA/solvent) [1]	IC50 [1, 5]	IC50 [1, 6]	IC50 [2]	IC50 [3]	% inhibition, PfNF54-Luc at 3 µM ([4]; 3 µM, 48 h)	inhibition at 3 µM [4]	IC50 shift with CoA supplementation [1]	IC50 ([1]; 3D7, no CoA, read-out: IC50, 3D7 strain)	fold higher antiplasmodial activity ([1]; compared to 8c)	selectivity HEK-293 vs 3D7 parasites ([2]; IC50 HEK-293 / IC50 3D7)	selectivity THP-1 vs 3D7 parasites ([3]; IC50 THP-1 / IC50 3D7)	selectivity toward human cell lines ([3]; human cell lines vs 3D7)
c1coc(-c2nnc(Sc3ncnc4sccc34)o2)c1 [Compound 3a]	16.3	4.61 ± 0.15 µM	0.283 ± 0.073 µM	> 10 µM	6.13 µM	80.8 ± 0.5%	80%						
Cn1ccnc1Sc1ncnc2sccc12 [Compound 8c]		2.31 ± 0.17 µM	1.3 µM	> 40 µM	> 300 µM		96.5 ± 1.6%						
c1csc(Sc2ncnc3sccc23)n1 [Compound 8d]	67.3	2.6 ± 0.4 µM	0.039 ± 0.001 µM	> 10 µM	27.5 µM		99.9%	67 fold					
c1coc(Sc2ncnc3sccc23)n1 [Compound 8e]	34.5	2.6 ± 0.4 µM	0.0747 ± 0.021 µM	> 10 µM	33.6 µM		99.5 ± 0.5%	34 fold	0.075 µM	17 fold	> 133 fold	450 fold	> 100 fold
Nc1nnc(Sc2ncnc3sccc23)s1 [Compound 8f]	117	> 11 µM	0.096 ± 0.006 µM	> 4 µM	11 µM		99.7 ± 0.1%	117 fold					
c1ccc2[nH]c(Sc3ncnc4sccc34)nc2c1 [Compound 8g]	7.23	0.531 ± 0.007 µM	0.0734 ± 0.0022 µM	> 10 µM	16.5 µM		95 ± 1.1%						
c1cnc2[nH]c(Sc3ncnc4sccc34)nc2c1 [Compound 8k]	7.11	1.06 ± 0.03 µM	0.149 ± 0.021 µM	> 20 µM	28 µM		98 ± 0.2%						
